According to ChEMBL document CHEMBL1137993, “Novel histone deacetylase inhibitors: cyclic tetrapeptide with trifluoromethyl and pentafluoroethyl ketones” (Bioorg Med Chem Lett, 2004):

Test system: Nucleic Acid

Row | Compound | EC50
1 | CC(/C=C/C(=O)NO)=C\[C@@H](C)C(=O)c1ccc(N(C)C)cc1 [TRICHOSTATIN] | 0.77 µM
2 | CC[C@H](C)[C@@H]1NC(=O)[C@@H](Cc2ccc(OC)cc2)NC(=O)[C@H](CCCCCC(=O)C(F)(F)C(F)(F)F)NC(=O)[C@H]2CCCN2C1=O | 31.1 µM
3 | CC[C@H](C)[C@@H]1NC(=O)[C@@H](Cc2ccc(OC)cc2)NC(=O)[C@H](CCCCCC(=O)C(F)(F)F)NC(=O)[C@H]2CCCN2C1=O | 3.09 µM
